Like-named read-outs stand apart in the source and are kept apart here.
Biological target: T1, human CB2 receptors (Homo sapiens, UniProt P34972)
T1 construct: expressed in transfected cells; membrane preparations
Assay: Affinity for human CB2 cannabinoid receptors: inhibition of [3H]-CP55940 binding to transfected CHO-K1 cell membranes
Details: inhibition constant value range, [3H]-CP55940 1 nM, Cheng-Prusoff
Procedure: The affinity of the compounds of the present invention for the different sub-types of cannabinoid receptors was measured according to procedures analogous to those described hereafter for the human CB2 receptor.
Study of the Affinity of the Compounds for the Human CB2 Cannabinoid Receptors:
The affinity of the compounds of the invention for the human CB2 receptors is determined by measuring the inhibition of the binding of [^3H]-CP55940 to transfected CHO-K1 cell membrane preparations.
The CHO-K1 cells expressing the human CB2 receptors in stable fashion are cultured in an RPMI 1640 medium containing 10% foetal calf serum, 2 mM of glutamine, 100 U/ml of penicillin, 0.1 mg/ml of streptomycin and 0.5 mg/ml of G418. The cells are collected with 0.5 mM of EDTA and centrifuged at 500 g for 5 minutes at 4° C. The pellet is re-suspended in phosphate buffered saline medium (PBS) and centrifuged at 500 g for 5 minutes at 4° C. The pellet is re-suspended in a Tris 50 mM buffer medium at pH 7.4 and centrifuged at 500 g for 5 minutes at 4° C. The cells are lysed by sonication and centrifuged at 39,000 g for 10 minutes at 4° C. The pellet is re-suspended in the Tris 50 mM buffer medium at pH 7.4 and centrifuged at 50,000 g for 10 minutes at 4° C. The membranes obtained in this last pellet are stored at −80° C.
Measurement of the competitive inhibition of the binding of the [^3H]-CP55940 to the CB2 receptors is carried out in duplicate using 96-well polypropylene plates. The cell membranes (10 μg of proteins/well) are incubated with the [^3H]-CP55940 (1 nM) for 60 minutes at 25° C. in a Tris-HCl 50 mM buffer medium, pH 7.4, comprising 0.1% bovine serum albumin (BSA), 5 mM of MgCl2, and 50 μg/ml of bacitracin.
The bound [^3H]-CP55940 is separated from the free [^3H]-CP55940 by filtration through GF/C glass fibre filter plates (Unifilter, Packard) pre-impregnated with 0.1% polyethylenimine (P.E.I.), using a Filtermate 196 (Packard). The filters are washed with Tris-HCl 50 mM buffer, pH 7.4 at 0-4° C. and the radioactivity present is determined using a counter (Packard Top Count).
The specific binding is obtained by subtracting the non-specific binding (determined in the presence of 0.1 μM of WIN55212-2 from the total binding). The data are analyzed by computer-assisted non-linear regression (MDL). For each test, a Cheng-Prusoff correction is made in order to convert the IC50 to the inhibition constant, Ki.
where [L] is the concentration of the radioligand used in the test and Kd is the radioligand equilibrium dissociation constant.

T1 sequence (P34972 whole entry): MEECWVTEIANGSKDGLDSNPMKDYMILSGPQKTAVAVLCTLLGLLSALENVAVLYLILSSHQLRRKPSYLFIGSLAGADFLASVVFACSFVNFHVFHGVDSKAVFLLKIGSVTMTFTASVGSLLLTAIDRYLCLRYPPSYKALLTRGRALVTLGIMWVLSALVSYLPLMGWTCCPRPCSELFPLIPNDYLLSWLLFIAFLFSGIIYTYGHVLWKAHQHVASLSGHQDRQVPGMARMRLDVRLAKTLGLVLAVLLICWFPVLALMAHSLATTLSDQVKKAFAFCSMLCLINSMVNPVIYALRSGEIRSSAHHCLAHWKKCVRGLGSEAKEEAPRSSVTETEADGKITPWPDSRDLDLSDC

| Compound | Ki (read-out: Ki < 0.5 μM) | Ki (read-out: Ki < 5 μM) |
| --- | --- | --- |
| O=c1c2sccc2nc(-c2ccc(-c3ccccc3)cc2)n1CCN1CCCCC1 [Example 24] | < 0.5 µM | < 5 µM |
| Cc1cc2nc(-c3ccc(-c4ccccc4Cl)cc3)n(CCN3CCCCC3)c(=O)c2s1 [Example 77] | < 0.5 µM | < 5 µM |
| COc1ccc(CCn2c(-c3ccc(-c4ccccc4)cc3)nc3ccsc3c2=O)cc1OC [Example 2] | – | < 5 µM |
| Cc1ccc(-c2ccc(-c3nc4ccsc4c(=O)n3CCN3CCCCC3)cc2)cc1 [Example 65] | < 0.5 µM | < 5 µM |
| O=c1c2sccc2nc(-c2ccc3cc4ccccc4cc3c2)n1CCN1CCCCC1 [Example 50] | < 0.5 µM | < 5 µM |
| O=c1c2sccc2nc(-c2ccc(-c3cccs3)cc2)n1CCc1ccccc1 [Example 20] | < 0.5 µM | < 5 µM |
| O=c1c2sccc2nc(-c2ccc(C3CCCCC3)cc2)n1CCc1ccccc1 [Example 18] | < 0.5 µM | < 5 µM |
| O=c1c2sccc2nc(-c2ccc(C3CCCCC3)cc2)n1CCN1CCCCCC1 [Example 38] | < 0.5 µM | < 5 µM |
| O=c1c2sccc2nc(-c2ccc(-c3ccccc3)cc2)n1CCc1ccncc1 [Example 15] | < 0.5 µM | < 5 µM |
| O=c1c2sccc2nc(-c2ccc(-c3ccccc3)cc2)n1CCc1cccs1 [Example 3] | – | < 5 µM |
| CC1CCCN(CCn2c(-c3ccc(-c4ccccc4)cc3)nc3ccsc3c2=O)C1 (stereo not drawn) [Example 42] | < 0.5 µM | < 5 µM |
| O=c1c2sccc2nc(-c2ccc(-c3ccccc3)cc2)n1CCC1CCOCC1 [Example 12] | < 0.5 µM | < 5 µM |
| Cc1cccc(-c2ccc(-c3nc4c(C)c(C)sc4c(=O)n3CCN3CCCCC3)cc2)c1 [Example 70] | < 0.5 µM | < 5 µM |
| O=c1c2sccc2nc(-c2ccc(-c3ccccc3)cc2)n1CCc1ccc(Cl)cc1Cl [Example 6] | < 0.5 µM | < 5 µM |
| O=c1c2sccc2nc(C2CCC(c3ccccc3)CC2)n1CCN1CCCCC1 (stereo not drawn) [Example 53] | < 0.5 µM | < 5 µM |
| COc1cccc(-c2ccc(-c3nc4ccsc4c(=O)n3CCN3CCCCC3)cc2)c1 [Example 89] | < 0.5 µM | < 5 µM |

| Compound | Ki (read-out: Ki < 0.5 μM) | Ki (read-out: Ki < 5 μM) |
| --- | --- | --- |
| O=c1c2sccc2nc(-c2ccc(-c3ccccc3)cc2)n1CCC1C[C@H]2CC[C@@H]1C2 (stereo partly drawn) [Example 59] | – | < 5 µM |
| Cc1cccc(-c2ccc(-c3nc4ccsc4c(=O)n3CCN3CCCCC3)cc2)c1 [Example 62] | < 0.5 µM | < 5 µM |
| Cc1cc2nc(-c3ccc(-c4ccccc4F)cc3)n(CCN3CCCCC3)c(=O)c2s1 [Example 78] | < 0.5 µM | < 5 µM |
| O=c1c2sc3ccccc3c2nc(-c2ccc(-c3ccccc3)cc2)n1CCN1CCCCC1 [Example 44] | < 0.5 µM | < 5 µM |
| O=c1c2sccc2nc(-c2ccc(-c3ccccc3)c(F)c2)n1CCN1CCCCC1 [Example 67] | < 0.5 µM | < 5 µM |
| O=c1c2sccc2nc(-c2ccc(-c3ccc(Cl)c(Cl)c3)cc2)n1CCN1CCCCC1 [Example 56] | < 0.5 µM | < 5 µM |
| O=c1c2sccc2nc(-c2ccc(C3CCCCC3)cc2)n1CCN1CCOCC1 [Example 37] | < 0.5 µM | < 5 µM |
| O=c1c2ccsc2nc(-c2ccc(-c3ccccc3)cc2)n1CCN1CCCCC1 [Example 49] | < 0.5 µM | < 5 µM |
| O=c1c2sccc2nc(-c2ccc(-c3ccccc3)cc2)n1CCc1ccc(Cl)c(Cl)c1 [Example 7] | < 0.5 µM | < 5 µM |
| O=c1c2sc3ccccc3c2nc(-c2ccc(-c3ccccc3)cc2)n1CCN1CCOCC1 [Example 45] | – | < 5 µM |
| Cc1cc2nc(-c3ccc(-c4ccccc4C)cc3)n(CCN3CCCCC3)c(=O)c2s1 [Example 68] | < 0.5 µM | < 5 µM |
| O=c1c2sccc2nc(-c2ccc(-c3ccccc3Cl)cc2)n1CCN1CCCCC1 [Example 64] | < 0.5 µM | < 5 µM |
| CC1CCCC(C)N1CCn1c(-c2ccc(-c3ccccc3)cc2)nc2ccsc2c1=O (stereo not drawn) [Example 72] | – | < 5 µM |
| O=c1c2sccc2nc(-c2ccc(-c3cccc(Cl)c3)cc2)n1CCN1CCCCC1 [Example 79] | < 0.5 µM | < 5 µM |
| O=c1c2sccc2nc(-c2ccc(-c3ccccc3)cc2)n1CCC1CCCCC1 [Example 11] | < 0.5 µM | < 5 µM |

Source: patent US20090325933A1, “Pyrimidinone Derivatives and Their Use as a Drug” (Ipsen Pharma S.A.S., priority 2006, published 2009)
